± gives the standard deviation of the averaged measurements.
How the values were obtained:
KHOS-NP = assay: standardised AUC of viability dose-response curve (72 h) (fraction (0-1)); higher = less growth inhibition (more resistant)
Method in brief: (§1)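 Sarcoma cell lines in 384-well plates were treated in triplicate for 72 h with 2.5 µl of a compound dilution series, made in 1:3 steps from 10 mM to 0.0002 mM on the compound plate. ATPLite viability was scaled from 1 (full) to 0 (none) and fitted per drug and cell line with a four-parameter log-logistic model. The values are standardised areas under the dose-response curve in log-dose space, from a modified drexplorer computeAUC. On that scale, 1 means no response and 0 means full response.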

MES-SA = assay: as above
Method in brief: as §1

SYO-1 = assay: as above
Method in brief: as §1

KHOS-240S [1] = assay: as above
Method in brief: as §1

SW1353 = assay: as above
Method in brief: as §1

G401 = assay: as above
Method in brief: as §1

SK-LMS-1 = assay: as above
Method in brief: as §1

SW872 = assay: as above
Method in brief: as §1

HS729 = assay: as above
Method in brief: as §1

SW982 [2] = assay: as above
Method in brief: as §1

HT1080 = assay: as above
Method in brief: as §1

A204 = assay: as above
Method in brief: as §1

SK-ES-1 [3] = assay: as above
Method in brief: as §1

RD-ES [4] = assay: as above
Method in brief: as §1

RD [5] = assay: as above
Method in brief: as §1

VA-ES-BJ = assay: as above
Method in brief: as §1

SW684 = assay: as above
Method in brief: as §1

KHOS-240S [6] = assay: relative viability vs DMSO control (72 h) (fraction); higher = more viable cells
Method in brief: (§2)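 After seeding at densities set for 80–90% confluence in 384-well plates, sarcoma cell lines waited 24 h before 2.5 µl of serially diluted compound was added. Source plates held 10 mM down to 0.0002 mM. Plates were incubated 72 h at 37 °C with 5% CO2, with 0.1% DMSO vehicle and a 5 µM positive control, and relative viability was taken from ATPLite as percent growth averaged over up to triplicate wells, with 1 set as full and 0 as none.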

SW982 [7] = assay: as above
Method in brief: as §2

SK-ES-1 [8] = assay: as above
Method in brief: as §2

RD-ES [9] = assay: as above
Method in brief: as §2

RD [10] = assay: as above
Method in brief: as §2

COc1cc2ncnc(Nc3cccc(Cl)c3F)c2cc1OC(=O)N1CCN(C)C[C@H]1C [AZD-3759]
standardised AUC (KHOS-NP): 0.969
standardised AUC (MES-SA): 0.974
standardised AUC (SYO-1): 0.91
standardised AUC (KHOS-240S [1]): 0.967
standardised AUC (SW1353): 0.922
standardised AUC (G401): 0.972
standardised AUC (SK-LMS-1): 0.964
standardised AUC (SW872): 0.967
standardised AUC (HS729): 0.906
standardised AUC (SW982 [2]): 0.977
standardised AUC (HT1080): 0.975
standardised AUC (A204): 0.958
standardised AUC (SK-ES-1 [3]): 0.972
standardised AUC (RD-ES [4]): 0.992
standardised AUC (RD [5]): 0.991
standardised AUC (VA-ES-BJ): 0.955
standardised AUC (SW684): 0.978
relative viability (KHOS-240S [6]; 0.00017 µM): 1.04 ± 0.021
relative viability (KHOS-240S [6]; 0.00051 µM): 1.06 ± 0.022
relative viability (KHOS-240S [6]; 0.00152 µM): 1.06 ± 0.028
relative viability (KHOS-240S [6]; 0.00457 µM): 1.06 ± 0.017
relative viability (KHOS-240S [6]; 0.01372 µM): 1.05 ± 0.024
relative viability (KHOS-240S [6]; 0.04115 µM): 1.04 ± 0.014
relative viability (KHOS-240S [6]; 0.1235 µM): 1.05 ± 0.069
relative viability (KHOS-240S [6]; 0.3704 µM): 1.04 ± 0.061
relative viability (KHOS-240S [6]; 1.111 µM): 0.9537 ± 0.005
relative viability (KHOS-240S [6]; 3.333 µM): 0.976 ± 0.015
relative viability (KHOS-240S [6]; 10 µM): 0.878 ± 0.037
relative viability (SW982 [7]; 0.00017 µM): 1.06 ± 0.027
relative viability (SW982 [7]; 0.00051 µM): 1.02 ± 0.027
relative viability (SW982 [7]; 0.00152 µM): 1.03 ± 0.025
relative viability (SW982 [7]; 0.00457 µM): 1.06 ± 0.021
relative viability (SW982 [7]; 0.01372 µM): 1.07 ± 0.054
relative viability (SW982 [7]; 0.04115 µM): 1.04 ± 0.014
relative viability (SW982 [7]; 0.1235 µM): 1.07 ± 0.04
relative viability (SW982 [7]; 0.3704 µM): 1.07 ± 0.041
relative viability (SW982 [7]; 1.111 µM): 1.01 ± 0.037
relative viability (SW982 [7]; 3.333 µM): 0.945 ± 0.015
relative viability (SW982 [7]; 10 µM): 0.889 ± 0.029
relative viability (SK-ES-1 [8]; 0.00017 µM): 1.09 ± 0.035
relative viability (SK-ES-1 [8]; 0.00051 µM): 0.999 ± 0.046
relative viability (SK-ES-1 [8]; 0.00152 µM): 1.06 ± 0.059
relative viability (SK-ES-1 [8]; 0.00457 µM): 1.01 ± 0.014
relative viability (SK-ES-1 [8]; 0.01372 µM): 1.06 ± 0.037
relative viability (SK-ES-1 [8]; 0.04115 µM): 1.06 ± 0.091
relative viability (SK-ES-1 [8]; 0.1235 µM): 0.978 ± 0.049
relative viability (SK-ES-1 [8]; 0.3704 µM): 0.999 ± 0.063
relative viability (SK-ES-1 [8]; 1.111 µM): 1.02 ± 0.031
relative viability (SK-ES-1 [8]; 3.333 µM): 0.908 ± 0.046
relative viability (SK-ES-1 [8]; 10 µM): 0.83 ± 0.052
relative viability (RD-ES [9]; 0.00017 µM): 0.97 ± 0.012
relative viability (RD-ES [9]; 0.00051 µM): 0.967 ± 0.017
relative viability (RD-ES [9]; 0.00152 µM): 0.9816 ± 0.0069
relative viability (RD-ES [9]; 0.00457 µM): 0.977 ± 0.022
relative viability (RD-ES [9]; 0.01372 µM): 0.983 ± 0.016
relative viability (RD-ES [9]; 0.04115 µM): 0.991 ± 0.031
relative viability (RD-ES [9]; 0.1235 µM): 0.9757 ± 0.0083
relative viability (RD-ES [9]; 0.3704 µM): 0.9684 ± 0.0087
relative viability (RD-ES [9]; 1.111 µM): 0.961 ± 0.029
relative viability (RD-ES [9]; 3.333 µM): 0.948 ± 0.021
relative viability (RD-ES [9]; 10 µM): 0.915 ± 0.048
relative viability (RD [10]; 0.00017 µM): 1.04 ± 0.051
relative viability (RD [10]; 0.00051 µM): 1.1 ± 0.03
relative viability (RD [10]; 0.00152 µM): 1.1 ± 0.039
relative viability (RD [10]; 0.00457 µM): 1.1 ± 0.032
relative viability (RD [10]; 0.01372 µM): 1.11 ± 0.021
relative viability (RD [10]; 0.04115 µM): 1.09 ± 0.022
relative viability (RD [10]; 0.1235 µM): 1.09 ± 0.066
relative viability (RD [10]; 0.3704 µM): 1.12 ± 0.01
relative viability (RD [10]; 1.111 µM): 1.08 ± 0.036
relative viability (RD [10]; 3.333 µM): 1.06 ± 0.05
relative viability (RD [10]; 10 µM): 0.97 ± 0.01
